Where “and” joins values, the source holds several entries; their conditions need not be identical. Equal values may be shown once. Read-outs that look alike come from different tables or passages of the source.
How the values were obtained:
[1] = system: differentiated PC-12 Adh cells; experiment: Neuroprotective activity against 6-OHDA-induced neurotoxicity (WST-1 cell viability); assay type: cell-based, rat; conditions: for induction in cell viability percentage compared with the 6-OHDA-positive control group (statistical analysis): 100 µg/mL, one-way ANOVA and Tukey’s post hoc test, ** p < 0.01
Experimental: (§1) PC-12 Adh cells were cultured in 10% horse serum, 5% fetal bovine serum, and 1% penicillin-streptomycin containing DMEM growth medium, at 37 °C in a humidified incubator with 5% CO2. The proliferating cells were passaged 1:2 to new 25 and/or 75 cm^2 flasks and cell stocks were prepared in order to use in future experiments. In order to induce PC-12 Adh cell differentiation into neuronal phenotype, growth medium was changed with 1% fetal bovine serum, 1% penicillin-streptomycin and 100 nM NGF containing DMEM differentiation medium.
(§2) The differentiated PC-12 Adh cells were scratched and plated onto 96-well culture plates at 5 × 10^3 density per well. […] After 24 h, the neuroprotective effects of the compounds were determined by WST-1 cell viability assay as explained above. The graphics were drawn according to the cell viability, which was expressed as percentage of the surviving control cells in the study.
(§3) The graphics were drawn with Graphpad Prism 6.0 software and statistically analyzed using one-way ANOVA and Tukey’s post hoc test.

[2] = system: differentiated PC-12 Adh cells; experiment: WST-1 cell viability assay for non-cytotoxic concentrations; assay type: cell-based, rat; conditions: for IC50: Rattus norvegicus, read-out: IC50 (cell viability assay)
Experimental: as §1
Differentiated PC-12 Adh cells were stained with Trypan blue solution and counted by a cell counter device (Cedex XS, Innovatis, Malvern, PA, USA) in order to determine the appropriate cell numbers before the experiments.
In order to obtain non-cytotoxic concentrations of the compounds, the viability of neuronal cells was measured by using 2-(4-iodophenyl)-3-(4-nitrophenyl)-5-(2,4-disulfophenyl)-2H-tetrazolium sodium salt (WST-1) assay (Roche, Mannheim, Germany). The test is based on the cleavage of the tetrazolium salt WST-1 in formazan by mitochondrial dehydrogenases in viable cells. The formazan dye was quantified in a scanning multiwell spectrophotometer by measuring the absorbance of the dye at 420 nm. The differentiated PC-12 Adh cells were scratched and plated onto 96-well culture plates at 5 × 10^3 density per well. […] After the incubation period, the cell proliferation reagent WST-1 (10 μL per well) was added to the wells; and absorbances were measured after 3 h using a Cytation 3 cell imaging multi-mode reader at 420 nm (BioTek, Winooski, VT, USA). The measured absorbances directly correlated to the number of viable cells.

[3] = Neuroprotective activity against 6-OHDA-induced neurotoxicity (WST-1 cell viability); assay type: cell-based, rat; conditions: rat, 150 µM 6-OHDA alone for 24 h (positive control); % of the control
Experimental: as §1, §2, §3

[4] = 100 µg/mL compound for 6 h, then 150 µM 6-OHDA for 24 h
[5] = differentiated PC-12 Adh cells, 24 h treatment, WST-1

SMILES	IC50 [2, 5]	also measured
Cc1ccc(/C=C/C(=O)c2ccco2)cc1 [Compound 1, 1-(2-Furanyl)-3-aryl-2-propen-1-one]	12 µg/mL	melting point: 111 to 113 °C; reduction in cell viability ([1]; 10 µg/mL compound for 6 h, then 150 µM 6-OHDA for 24 h): 40%; reduction in cell viability [1, 4]: 97%; cytotoxicity (effect on cell viability, in words) ([2]; differentiated PC-12 Adh cells, 100 µg/mL): highly cytotoxic
O=C(/C=C/c1ccc2c(c1)OCO2)c1cccs1 [Compound 2, 1-(2-Thienyl)-3-aryl-2-propen-1-one]	345 µg/mL	reduction in cell viability [1, 4]: 34.1%
Cc1ccc(C2CC(c3ccco3)=NN2c2ccccc2)cc1 (centres unmarked) [Compound 3a, 1-Phenyl-3-(2-furanyl)-5-(4-methylphenyl)-2-pyrazoline]	> 400 µg/mL	–
Cc1ccc(C2CC(c3ccco3)=NN2c2ccc(C#N)cc2)cc1 (centres unmarked) [Compound 3b, 1-(4-Cyanophenyl)-3-(2-furanyl)-5-(4-methylphenyl)-2-pyrazoline]	204 µg/mL	–
Cc1ccc(C2CC(c3ccco3)=NN2c2ccc(F)cc2)cc1 (centres unmarked) [Compound 3c, 1-(4-Fluorophenyl)-3-(2-furanyl)-5-(4-methylphenyl)-2-pyrazoline]	353 µg/mL	–
Cc1ccc(C2CC(c3ccco3)=NN2c2ccc(Cl)cc2)cc1 (centres unmarked) [Compound 3d, 1-(4-Chlorophenyl)-3-(2-furanyl)-5-(4-methylphenyl)-2-pyrazoline]	> 400 µg/mL	–
Cc1ccc(C2CC(c3ccco3)=NN2c2ccc(Br)cc2)cc1 (centres unmarked) [Compound 3e, 1-(4-Bromophenyl)-3-(2-furanyl)-5-(4-methylphenyl)-2-pyrazoline]	398 µg/mL	–
Cc1ccc(C2CC(c3ccco3)=NN2c2ccc(C)cc2)cc1 (centres unmarked) [Compound 3f, 1-(4-Methylphenyl)-3-(2-furanyl)-5-(4-methylphenyl)-2-pyrazoline]	> 400 µg/mL	–
COc1ccc(N2N=C(c3ccco3)CC2c2ccc(C)cc2)cc1 (centres unmarked) [Compound 3g, 1-(4-Methoxyphenyl)-3-(2-furanyl)-5-(4-methylphenyl)-2-pyrazoline]	> 400 µg/mL	–
Cc1ccc(C2CC(c3ccco3)=NN2c2ccc(S(C)(=O)=O)cc2)cc1 (centres unmarked) [Compound 3h, 1-(4-Methylsulfonylphenyl)-3-(2-furanyl)-5-(4-methylphenyl)-2-pyrazoline]	> 400 µg/mL	reduction in cell viability [1, 4]: 20%; induction in cell viability percentage compared with the 6-OHDA-positive control group (statistical analysis) [1]: significant
Cc1ccc(C2CC(c3ccco3)=NN2c2ccc(S(N)(=O)=O)cc2)cc1 (centres unmarked) [Compound 3i, 1-(4-Sulfonamidophenyl)-3-(2-furanyl)-5-(4-methylphenyl)-2-pyrazoline]	205 µg/mL	–
c1ccc(N2N=C(c3cccs3)CC2c2ccc3c(c2)OCO3)cc1 (centres unmarked) [Compound 4a, 1-Phenyl-3-(2-thienyl)-5-(1,3-benzodioxol-5-yl)-2-pyrazoline]	> 400 µg/mL	–
N#Cc1ccc(N2N=C(c3cccs3)CC2c2ccc3c(c2)OCO3)cc1 (centres unmarked) [Compound 4b, 1-(4-Cyanophenyl)-3-(2-thienyl)-5-(1,3-benzodioxol-5-yl)-2-pyrazoline]	> 400 µg/mL	–
Fc1ccc(N2N=C(c3cccs3)CC2c2ccc3c(c2)OCO3)cc1 (centres unmarked) [Compound 4c, 1-(4-Fluorophenyl)-3-(2-thienyl)-5-(1,3-benzodioxol-5-yl)-2-pyrazoline]	> 400 µg/mL	–
Clc1ccc(N2N=C(c3cccs3)CC2c2ccc3c(c2)OCO3)cc1 (centres unmarked) [Compound 4d, 1-(4-Chlorophenyl)-3-(2-thienyl)-5-(1,3-benzodioxol-5-yl)-2-pyrazoline]	> 400 µg/mL	–
Brc1ccc(N2N=C(c3cccs3)CC2c2ccc3c(c2)OCO3)cc1 (centres unmarked) [Compound 4e, 1-(4-Bromophenyl)-3-(2-thienyl)-5-(1,3-benzodioxol-5-yl)-2-pyrazoline]	> 400 µg/mL	–
Cc1ccc(N2N=C(c3cccs3)CC2c2ccc3c(c2)OCO3)cc1 (centres unmarked) [Compound 4f, 1-(4-Methylphenyl)-3-(2-thienyl)-5-(1,3-benzodioxol-5-yl)-2-pyrazoline]	239 µg/mL	–
COc1ccc(N2N=C(c3cccs3)CC2c2ccc3c(c2)OCO3)cc1 (centres unmarked) [Compound 4g, 1-(4-Methoxyphenyl)-3-(2-thienyl)-5-(1,3-benzodioxol-5-yl)-2-pyrazoline]	252 µg/mL	–
CS(=O)(=O)c1ccc(N2N=C(c3cccs3)CC2c2ccc3c(c2)OCO3)cc1 (centres unmarked) [Compound 4h, 1-(4-Methylsulfonylphenyl)-3-(2-thienyl)-5-(1,3-benzodioxol-5-yl)-2-pyrazoline]	> 400 µg/mL	reduction in cell viability [1, 4]: 23%; induction in cell viability percentage compared with the 6-OHDA-positive control group (statistical analysis) [1]: significant
NS(=O)(=O)c1ccc(N2N=C(c3cccs3)CC2c2ccc3c(c2)OCO3)cc1 (centres unmarked) [Compound 4i, 1-(4-Sulfonamidophenyl)-3-(2-thienyl)-5-(1,3-benzodioxol-5-yl)-2-pyrazoline]	> 400 µg/mL	–
NCCc1cc(O)c(O)cc1O [Compound 6-OHDA, 6-hydroxydopamine]	–	reduction in cell viability ([1]; 150 µM 6-OHDA alone for 24 h (positive control)): 42.13% and 43% and 42%; viability at 24 h, 150 µM [3]: 57%; IC50 ([2]; PC-12, 24 h): 150 µM

From PMC6225304, “Design, Synthesis, and Neuroprotective Effects of a Series of Pyrazolines against 6-Hydroxydopamine-Induced Oxidative Stress” (Molecules : A Journal of Synthetic Chemistry and Natural …, 2018)
